Where a name gives a salt, the structure may show the parent alone.
Tests used:
[1] = molecular target: catalytic domain (JH1, amino acids 826-1132) of human JAK2 (Homo sapiens (Human), UniProt O60674); assay: JAK2 LanthaScreen JH1 Binding Assay; details: JAK2 JH1 1.5 nM, 50 nM fluorescent tracer, 2 hours at 25° C.; read-out: JH1 BIND IC50
Protocol: Example A. JAK2 LanthaScreen JH1 Binding Assay
(§1) JAK2 JH1 binding assay utilizes catalytic domain (JH1, amino acids 826-1132) of human JAK2 expressed as N-terminal FLAG-tagged, biotinylated protein in a baculovirus expression system (Carna Biosciences, Product #08-445-20N). The assay was conducted in black 384-well polystyrene plates in a final reaction volume of 20 μL. JAK2 JH1 (1.5 nM) was incubated with compounds (100 nL serially diluted in DMSO) in the presence of 50 nM Fluorescent JAK2-JH1 Tracer and 0.5 nM Streptavidin-Tb cryptate (Cisbio Part #610SATLB) in assay buffer (50 mM Tris, pH=7.5, 10 mM MgCl2, 0.01% Brij-35, 0.1% BSA, 1 mM EGTA, 5% Glycerol and 5 mM DTT). Non-specific binding was accessed in the presence of 2 mM ATP. After incubation for 2 hours at 25° C., LanthaScreen signals were read on a PHERAstar FS plate reader (BMG LABTECH). Data was analyzed with IDBS XLfit and GraphPad Prism 5.0 software using a four parameter dose response curve to determine IC50 for each compound.

[2] = molecular target: pseudo-kinase domain (JH2, amino-acids 536-812) of human Wild Type JAK2 (Homo sapiens (Human), UniProt O60674, F794H/W659A/W777A); assay: JAK2 LanthaScreen JH2-WT Binding Assay; details: JAK2 JH2-WT 0.145 nM, 50 nM fluorescent tracer, 1 hour at 25° C.; read-out: JH2 BIND WT IC50
Protocol: Example B. JAK2 LanthaScreen JH2-WT Binding Assay
as §1, with “The” for “JAK2 JH1 binding assay utilizes catalytic domain (JH1, amino acids 826-1132) of human JAK2 expressed as N-terminal FLAG-tagged, biotinylated protein in a baculovirus expression system (Carna Biosciences, Product #08-445-20N). The”, “JH2-WT (0.145” for “JH1 (1.5”, “JAK2-JH2” for “JAK2-JH1”, “Tracer (MedChem Express Catalog #HY-102055)” for “Tracer”, “0.25” for “0.5”, “1 hour” for “2 hours”

[3] = molecular target: pseudo-kinase domain (JH2, amino-acids 536-812) of human V617F mutant JAK2 (Homo sapiens (Human), UniProt O60674, F794H/V617F/W659A/W777A); assay: JAK2 LanthaScreen JH2-V617F Binding Assay; details: JAK2 JH2-V617F 0.26 nM, 50 nM fluorescent tracer, 1 hour at 25° C.; read-out: JH2 BIND V617F IC50
Protocol: The assay was conducted in black 384-well polystyrene plates in a final reaction volume of 20 μL. […] Non-specific binding was accessed in the presence of 2 mM ATP. After incubation for 1 hour at 25° C., LanthaScreen signals were read on a PHERAstar FS plate reader (BMG LABTECH). Data was analyzed with IDBS XLfit and GraphPad Prism 5.0 software using a four parameter dose response curve to determine IC50 for each compound.

[4] = molecular target: catalytic domain (JH1, amino acids 808-1132) of human JAK2 (Homo sapiens (Human), UniProt O60674); assay: JAK2 HTRF Enzyme Activity Assay; type: biochemical; details: JAK2 0.015 nM, ATP (30 μM or 1 mM), 60 minutes at 25° C.
Protocol: Example D. JAK2 HTRF Enzyme Activity Assay
JAK2 enzyme activity assays utilize catalytic domain (JH1, amino acids 808-1132) of human JAK2 expressed as N-terminal His-tagged protein in a baculovirus expression system (BPS Bioscience, Catalog #40450). The assays was conducted in black 384-well polystyrene plates in a final reaction volume of 20 μL. JAK2 (0.015 nM) was incubated with compounds (100 nL serially diluted in DMSO) in the presence of ATP (30 μM or 1 mM) and 500 nM Biotin-labeled […] (SEQ ID NO.: 1) peptide (BioSource International, custom synthesis) in assay buffer (50 mM Tris, pH=7.5, 10 mM MgCl2, 0.01% Brij-35, 0.1% BSA, 1 mM EGTA, 5% Glycerol and 5 mM DTT) for 60 minutes at 25° C. The reactions were stopped by the addition of 10 μL of detection buffer (50 mM Tris, pH 7.8, 0.5 mg/mL BSA, 150 mM NaCl), supplemented with EDTA, LANCE Eu-W1024 anti-phosphotyrosine (PY20), (PerkinElmer, Catalog #AD0067) and Streptavidin SureLight APC (PerkinElmer Catalog #CR130-100), for a final concentration of 15 mM, 1.5 nM and 75 nM, respectively. HTRF signals were read after 30 minutes incubation at room temperature on a PHERAstar FS plate reader (BMG LABTECH). Data was analyzed with IDBS XLfit and GraphPad Prism 5.0 software using a four parameter dose response curve to determine IC50 for each compound.

pseudo-kinase domain (JH2, amino-acids 536-812) of human V617F mutant JAK2, sequence (O60674 536-812 V617F/W659A/W777A/F794H): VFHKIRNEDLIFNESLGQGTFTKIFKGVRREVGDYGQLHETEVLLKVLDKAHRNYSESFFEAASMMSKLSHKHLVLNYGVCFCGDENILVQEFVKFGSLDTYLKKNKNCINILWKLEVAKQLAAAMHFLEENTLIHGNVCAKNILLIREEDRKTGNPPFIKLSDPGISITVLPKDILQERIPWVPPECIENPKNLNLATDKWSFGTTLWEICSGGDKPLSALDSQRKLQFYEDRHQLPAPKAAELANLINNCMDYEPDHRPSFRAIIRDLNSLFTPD
catalytic domain (JH1, amino acids 808-1132) of human JAK2, sequence (O60674 808-1132): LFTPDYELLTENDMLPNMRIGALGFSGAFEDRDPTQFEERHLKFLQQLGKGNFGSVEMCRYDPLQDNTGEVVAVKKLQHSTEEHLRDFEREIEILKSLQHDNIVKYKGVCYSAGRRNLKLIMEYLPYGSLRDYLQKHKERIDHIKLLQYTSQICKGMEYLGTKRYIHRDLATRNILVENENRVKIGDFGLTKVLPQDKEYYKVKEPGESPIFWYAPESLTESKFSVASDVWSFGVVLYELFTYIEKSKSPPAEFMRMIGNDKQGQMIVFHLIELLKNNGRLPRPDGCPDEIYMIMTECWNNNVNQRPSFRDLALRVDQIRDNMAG
catalytic domain (JH1, amino acids 826-1132) of human JAK2, sequence (O60674 826-1132): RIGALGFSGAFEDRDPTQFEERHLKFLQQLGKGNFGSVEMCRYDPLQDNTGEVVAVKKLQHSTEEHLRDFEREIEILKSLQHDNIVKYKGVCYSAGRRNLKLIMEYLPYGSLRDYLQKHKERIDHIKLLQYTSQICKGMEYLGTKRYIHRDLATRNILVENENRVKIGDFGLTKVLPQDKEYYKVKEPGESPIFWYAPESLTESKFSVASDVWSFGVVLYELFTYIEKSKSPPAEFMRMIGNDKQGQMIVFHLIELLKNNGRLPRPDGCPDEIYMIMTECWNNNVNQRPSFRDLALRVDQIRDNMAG
pseudo-kinase domain (JH2, amino-acids 536-812) of human Wild Type JAK2, sequence (O60674 536-812 W659A/W777A/F794H): as the sequence (O60674 536-812 V617F/W659A/W777A/F794H) above, with F82V counted along it

Row | SMILES | IC50 [1] | IC50 [2] | IC50 [3] | IC50 [4]
1 | COc1ccc(-c2c(C3CC3)[nH]c3ncc4c(c23)CN(c2ccc(C(=O)O)cc2)C(=O)N4C)cc1 [Example 26, 4-(8-Cyclopropyl-9-(4-methoxyphenyl)-4-methyl-3-oxo-1,3,4,7-tetrahydro-2H-pyrrolo[3′,2′:5,6]pyrido[3,4-d]pyrimidin-2-yl)benzoic acid] | > 2.5 µM | 0.1 to 0.5 µM | 0.1 to 0.5 µM | > 2.5 µM
2 | CC(=O)NCc1ccc(-c2c(-c3ccc(CN4CCC(S(C)(=O)=O)CC4)cc3)[nH]c3ncc4c(c23)CN(C(C)(C)C)C(=O)N4C)cc1 [Example 16, N-(4-(2-(tert-Butyl)-4-methyl-8-(4-((4-(methylsulfonyl)piperidin-1-yl)methyl)phenyl)-3-oxo-2,3,4,7-tetrahydro-1H-pyrrolo[3′,2′:5,6]pyrido[3,4-d]pyrimidin-9-yl)benzyl)acetamide] | ≤ 0.1 µM | ≤ 0.1 µM | ≤ 0.1 µM | ≤ 0.1 µM
3 | CN1C(=O)N(c2ccccc2)Cc2c1cnc1[nH]c(-c3ccc(CN4CCC(S(C)(=O)=O)CC4)cc3)cc21 [Example 2, 4-Methyl-8-(4-((4-(methylsulfonyl)piperidin-1-yl)methyl)phenyl)-2-phenyl-1,2,4,7-tetrahydro-3H-pyrrolo[3′,2′:5,6]pyrido[3,4-b]pyrimidin-3-one] | ≤ 0.1 µM | 0.1 to 0.5 µM | 0.5 to 1 µM | ≤ 0.1 µM
4 | CN1C(=O)N(C(C)(C)C)Cc2c1cnc1[nH]c(-c3ccc(CN4CCC(S(C)(=O)=O)CC4)cc3)c(-c3ccc(C(=O)NCC4(C#N)CC4)cc3)c21 [Example 14, 4-(2-(tert-Butyl)-4-methyl-8-(4-((4-(methylsulfonyl)piperidin-1-yl)methyl)phenyl)-3-oxo-2,3,4,7-tetrahydro-1H-pyrrolo[3′,2′:5,6]pyrido[3,4-d]pyrimidin-9-yl)-N-((1-cyanocyclopropyl)methyl)benzamide Trifluoroacetic Acid] | ≤ 0.1 µM | ≤ 0.1 µM | ≤ 0.1 µM | ≤ 0.1 µM
5 | CC(=O)N1CCN(c2ccc(-c3c(-c4ccc(CN5CCC(S(C)(=O)=O)CC5)cc4)[nH]c4ncc5c(c34)CN(C(C)(C)C)C(=O)N5C)cc2)CC1 [Example 18, 9-(4-(4-Acetylpiperazin-1-yl)phenyl)-2-(tert-butyl)-4-methyl-8-(4-((4-(methylsulfonyl)piperidin-1-yl)methyl)phenyl)-1,2,4,7-tetrahydro-3H-pyrrolo[3′,2′:5,6]pyrido[3,4-d]pyrimidin-3-one, trifluoroacetic acid salt] | ≤ 0.1 µM | ≤ 0.1 µM | ≤ 0.1 µM | ≤ 0.1 µM
6 | CC(C(N)=O)n1cc(-c2ccc(-c3c(-c4ccc(CN5CCC(S(C)(=O)=O)CC5)cc4)[nH]c4ncc5c(c34)CN(C(C)(C)C)C(=O)N5C)cc2)cn1 (racemic) [Example 19, 2-(4-(4-(2-(tert-Butyl)-4-methyl-8-(4-((4-(methylsulfonyl)piperidin-1-yl)methyl)phenyl)-3-oxo-2,3,4,7-tetrahydro-1H-pyrrolo[3′,2′:5,6]pyrido[3,4-d]pyrimidin-9-yl)phenyl)-1H-pyrazol-1-yl)propanamide Trifluoroacetic Acid Salt] | ≤ 0.1 µM | ≤ 0.1 µM | ≤ 0.1 µM | ≤ 0.1 µM
7 | CNC(=O)c1ccc(N2Cc3c(cnc4[nH]c(-c5ccc(CN6CCC(S(C)(=O)=O)CC6)cc5)c(-c5ccc(OC)cc5)c34)N(C)C2=O)cc1 [Example 12, 4-(9-(4-methoxyphenyl)-4-methyl-8-(4-((4-(methylsulfonyl)piperidin-1-yl)methyl)phenyl)-3-oxo-1,3,4,7-tetrahydro-2H-pyrrolo[3′,2′:5,6]pyrido[3,4-d]pyrimidin-2-yl)-N-methylbenzamide, trifluroacetate] | 1 to 2.5 µM | ≤ 0.1 µM | ≤ 0.1 µM | 1 to 2.5 µM
8 | COc1ccc(-c2c(-c3ccc(CN4CCC(S(C)(=O)=O)CC4)cc3)[nH]c3ncc4c(c23)CN(c2ccc(C(=O)Nc3cccnc3)cc2)C(=O)N4C)cc1 [Example 11, 4-(9-(4-Methoxyphenyl)-4-methyl-8-(4-((4-(methylsulfonyl)piperidin-1-yl)methyl)phenyl)-3-oxo-1,3,4,7-tetrahydro-2H-pyrrolo[3′,2′:5,6]pyrido[3,4-d]pyrimidin-2-yl)-N-(pyridin-3-yl)benzamide, Bistrifluoroacetic Acid Salt] | > 2.5 µM | ≤ 0.1 µM | ≤ 0.1 µM | > 2.5 µM
9 | COc1ccc(-c2c(-c3ccc(CN4CCC(S(C)(=O)=O)CC4)cc3)[nH]c3ncc4c(c23)CN(c2ccc(C(=O)NCC(=O)NNCc3ccccc3)cc2)C(=O)N4C)cc1 [Example 13, N-(2-(2-Benzylhydrazineyl)-2-oxoethyl)-4-(9-(4-methoxyphenyl)-4-methyl-8-(4-((4-(methylsulfonyl)piperidin-1-yl)methyl)phenyl)-3-oxo-1,3,4,7-tetrahydro-2H-pyrrolo[3′,2′: 5,6]pyrido[3,4-d]pyrimidin-2-yl)benzamide, TFA] | 1 to 2.5 µM |  |  | 1 to 2.5 µM
10 | CN1C(=O)N(c2ccc(C(=O)O)cc2)Cc2c1cnc1[nH]c(-c3ccc(CN4CCC(S(C)(=O)=O)CC4)cc3)c(-c3ccc(C4(N)CC4)cc3)c21 [Example 21, 4-(9-(4-(1-Aminocyclopropyl)phenyl)-4-methyl-8-(4-((4-(methylsulfonyl)piperidin-1-yl)methyl)phenyl)-3-oxo-1,3,4,7-tetrahydro-2H-pyrrolo[3′,2′:5,6]pyrido[3,4-d]pyrimidin-2-yl)benzoic acid trifluoroacetic acid salt (1:2)] | 1 to 2.5 µM | ≤ 0.1 µM | ≤ 0.1 µM | > 2.5 µM
11 | CS(=O)(=O)C1CCN(Cc2ccc(-c3cc4c5c(cnc4[nH]3)NC(=O)N(C3CCN(S(N)(=O)=O)CC3)C5)cc2)CC1 [Example 7, 4-(8-(4-((4-(methylsulfonyl)piperidin-1-yl)methyl)phenyl)-3-oxo-1,3,4,7-tetrahydro-2H-pyrrolo[3′,2′:5,6]pyrido[3,4-d]pyrimidin-2-yl)piperidine-1-sulfonamide] | ≤ 0.1 µM | 0.5 to 1 µM | 1 to 2.5 µM | ≤ 0.1 µM
